Key:
NLRP3 inflammasome = biological target: T1, NLRP3 inflammasome (Mus musculus, UniProt Q8R4B8); experiment: NLRP3 inflammasome activation assay: IL-1β release by primary microglia after LPS and ATP; assay type: cell-based, murine; details: for inhibition of IL-1β release upon NLRP3 activation: 100 μM compound; for inhibition of IL-1β release upon NLRP3 activation / IC50: microglia, LPS and ATP; for IC50: IL-1β release, nonlinear fit of dose-response, read-out: IC50; for remaining activity at 100 µM: microglia cultures pretreated with 100 μM compound before NLRP3 activation with LPS and ATP, read-out: % Residual activity (percentage of IL-1β, referred to control)
T1 construct: endogenous in cells; host or cells: primary microglia from cortices of 2-3 day old WT mouse pups
Description: Murine primary microglia. Mixed cortical cultures were prepared as previously described (Bronstein, R. et al. J. Vis. Exp. JoVE 50647 (2013) doi:10.3791/50647). Briefly, cortices from 2-3 days old, WT, or NLRP3 KO pups were isolated, digested, and seeded at a density of 8 cortices per 10 ml petri dish. Every three days, the medium was replaced by fresh culture medium (DMEM, 10% FBS, 1% penicillin-streptomycin). After three weeks, mixed glial cultures had reached confluence, and microglia cells were isolated by mild trypsinization as previously described (Saura, J. et al. Glia 44, 183-189 (2003)). In brief, cells were washed with culture medium without FBS and treated with a mixture of trypsin 0.25% (without EDTA) and DMEM-F12 medium in a 1:3 proportion. After an incubation period of approximately 40 min, an intact layer of mixed glial cells detached, leaving microglia attached firmly to the bottom of the Petri-dish. Pure microglia were then isolated by 15 min incubation with trypsin (0.05%)-EDTA at 37° C., followed by gentle shaking. Cells were counted and seeded at the desired density, typically 7.5·10^4 cells/well in 24 well-plates.
NLRP3 inflammasome activation assay. Primary microglia cultures were incubated with the compounds that inhibited IL-1β production in THP1 macrophages. Cells pretreated with 100 μM of the compounds—or with the same DMSO volume, in the case of control samples—were primed with 400 ng/ml LPS for 3 hours, and activated with 4.5 mM ATP for 45 minutes or […] nigericin for 1 hour. Dose-response curves were conducted by incubating microglia cultures with different concentrations of the selected compounds, ranging from 0.001 to 100 μM, 1 hour before NLRP3 activation with LPS and ATP. Supernatants were collected for IL-1β and toxicity assessments.
(§1) Cytokine quantification. IL-1β in cell supernatants and brain tissue samples—after the different treatment groups—was quantified using the Mouse IL-1 beta/IL-1F2 DuoSet ELISA kit (R&D systems), IL-6 in cell culture supernatant was measured through the Mouse IL-6 ELISA kit (ThermoFisher), TNF-α in cell culture supernatants was determined using the Mouse TNF-alpha DuoSet ELISA (R*D systems), and IL-18 in brain tissue was measured through the IL-18 Mouse ELISA Kit (Invitrogen) following the manufacturers' recommended protocol. IL-1β precursor and cleaved IL-1β in the FC of mice treated with vehicles, LPS, or C77-LPS was assessed by western blot. All samples were run in technical duplicates.

NLRC4 inflammasome = biological target: T2, NLRC4 inflammasome (Mus musculus, UniProt Q3UP24); experiment: NLRC4 inflammasome activation assay: IL-1β release, microglia from NLRP3 KO mice, LPS and flagellin; assay type: cell-based; details: 10 μM; microglia from NLRP3 KO mice, LPS and flagellin
T2 construct: endogenous in cells; host or cells: primary microglia from NLRP3 KO mice
Description: AIM2, NLRP7, and NLRC4 inflammasomes activation assays. […] AIM2 inflammasome activation was induced through the addition of 100 ng/ml LPS for 2 hours, followed by transfection of 1 μg poly(dA:dT) using Lipofectamine 2000 during 2 hours, following the manufacturer recommendations. NLRC4 was activated by treatment with 150 ng/ml LPS for 2 hours, before transfection of 1 μg flagellin during 2 hours, using lipofectamine 2000 as transfection reagent. Negative and positive controls were pre-treated with the same DMSO percentage as cells treated with the inhibitors. Negative controls were kept untreated after DMSO addition, while LPS-poly(dA:dT) or LPS-flagellin was added to positive controls for AIM2, and NLRC4 activation, respectively. For activation of the NLRP7 inflammasome different conditions were assessed: treatment of WT microglia cultures with 400 ng/ml fibroblast-stimulating lipopeptide-1 (fsl-1) for 7 hours, priming with 150 ng/ml LPS for 1 hour and treatment with 400 ng/ml fsl-1 for 7 hours, and priming with 150 ng/ml LPS and transfection of 400 ng/ml fsl-1 with lipofectamine. MCC950 was used as a negative control for NLRC4 and AIM-2 inhibition. Cells were pretreated with 5 μM MCC950 before LPS addition, and 2 hours later the NLRC4 and AIM-2 activation was induced through addition of their specific activators. Cell supernatants were collected for IL-1β measurement.
as §1

[1] = tested on: ASC specks following NLRP3 activation; experiment: ASC speck formation / ASC oligomerization in m-Cerulean ASC labeled macrophages; assay type: cell-based, murine; details: 10 μM pretreatment, LPS and ATP, compared with DMSO-treated cells
Description: m-Cerulean ASC labeled macrophages. NLRP3 Knock Out immortalized murine macrophages, stably expressing m-Cerulean-ASC, and NLRP3-Flag were a kind donation of Prof. Eicke Latz, (Institute of Innate Immunity, University of Bonn, Germany). Murine macrophages were maintained in high glucose DMEM medium supplemented with 10% FBS, 1% sodium pyruvate, and passaged every 2-3 days, before reaching confluence.
For ASC speck formation evaluation, murine macrophages were seeded in 96 well SCREENSTAR black microplates with clear base, 24 hours before stimulation. Then, cells were incubated for 1 hour with different concentrations of the inhibitors, or with the same DMSO volume for positive and negative controls for NLRP3 activation—DMSO-LPS-ATP or only DMSO, respectively. 0.5 μM MCC950 was used as a positive control for inhibition of NLRP3-mediated ASC oligomerization. NLRP3 activation was induced through treatment with 250 ng/ml LPS for 2.5 hours, followed by addition of 4.5 mM ATP for 45 min. Cells were then fixed and counterstained in a single step, as previously described (Stutz, A. et al. ASC Speck Formation as a Readout for Inflammasome Activation. in The Inflammasome (eds. De Nardo, C. M. & Latz, E.) vol. 1040 91-101 (Humana Press, 2013).). For that, a stock solution of DRAQS in formaldehyde was used, being the final concentrations 1% formaldehyde and 2.5 μM DRAQ5.
ASC oligomerization determination. […] ASC specks in cells pretreated with C75, C77, C78, and C97, before NLRP3 activation (as above indicated), were visualized with a widefield Leica DMi8 fluorescence microscope, using the 20× objective. […] For image analysis and speck quantification, ImageJ was used https://imagej.nih.gov/ij/index.html. Speck and nuclei quantification was performed as previously described in Stutz et al. When required (overlapping nuclei), the watershed separation algorithm was used to separate the particles. […] The rate of speck positive cells was calculated by normalizing the number of speck positive cells to the number of nuclei. […]

T1 sequence (Q8R4B8 whole entry): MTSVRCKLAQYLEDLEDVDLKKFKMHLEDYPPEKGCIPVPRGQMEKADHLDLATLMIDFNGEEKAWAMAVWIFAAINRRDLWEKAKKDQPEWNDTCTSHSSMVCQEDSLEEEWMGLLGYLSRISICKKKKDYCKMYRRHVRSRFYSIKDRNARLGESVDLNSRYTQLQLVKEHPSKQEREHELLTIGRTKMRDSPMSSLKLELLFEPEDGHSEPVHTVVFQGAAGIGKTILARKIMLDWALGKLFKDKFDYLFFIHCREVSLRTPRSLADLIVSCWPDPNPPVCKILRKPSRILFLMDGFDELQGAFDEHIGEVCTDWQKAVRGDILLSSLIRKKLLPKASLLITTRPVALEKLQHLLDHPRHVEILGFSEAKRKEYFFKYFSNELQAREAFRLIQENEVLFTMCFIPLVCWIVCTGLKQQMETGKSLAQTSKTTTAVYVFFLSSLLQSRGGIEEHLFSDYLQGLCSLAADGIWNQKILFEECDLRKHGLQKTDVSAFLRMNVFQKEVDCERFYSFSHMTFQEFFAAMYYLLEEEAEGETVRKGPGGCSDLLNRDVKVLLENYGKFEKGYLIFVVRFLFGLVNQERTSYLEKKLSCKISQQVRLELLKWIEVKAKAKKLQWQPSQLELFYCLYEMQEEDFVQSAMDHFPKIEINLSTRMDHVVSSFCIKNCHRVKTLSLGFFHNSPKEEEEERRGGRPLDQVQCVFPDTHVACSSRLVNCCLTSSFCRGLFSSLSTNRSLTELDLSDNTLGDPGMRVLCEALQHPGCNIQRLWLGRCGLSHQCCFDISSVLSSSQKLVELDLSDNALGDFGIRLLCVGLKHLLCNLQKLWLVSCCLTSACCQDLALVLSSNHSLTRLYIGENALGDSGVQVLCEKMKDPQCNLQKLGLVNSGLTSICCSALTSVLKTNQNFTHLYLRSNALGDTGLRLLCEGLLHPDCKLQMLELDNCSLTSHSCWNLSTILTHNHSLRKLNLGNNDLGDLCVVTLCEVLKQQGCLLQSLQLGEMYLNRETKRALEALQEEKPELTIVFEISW
T2 sequence (Q3UP24 whole entry): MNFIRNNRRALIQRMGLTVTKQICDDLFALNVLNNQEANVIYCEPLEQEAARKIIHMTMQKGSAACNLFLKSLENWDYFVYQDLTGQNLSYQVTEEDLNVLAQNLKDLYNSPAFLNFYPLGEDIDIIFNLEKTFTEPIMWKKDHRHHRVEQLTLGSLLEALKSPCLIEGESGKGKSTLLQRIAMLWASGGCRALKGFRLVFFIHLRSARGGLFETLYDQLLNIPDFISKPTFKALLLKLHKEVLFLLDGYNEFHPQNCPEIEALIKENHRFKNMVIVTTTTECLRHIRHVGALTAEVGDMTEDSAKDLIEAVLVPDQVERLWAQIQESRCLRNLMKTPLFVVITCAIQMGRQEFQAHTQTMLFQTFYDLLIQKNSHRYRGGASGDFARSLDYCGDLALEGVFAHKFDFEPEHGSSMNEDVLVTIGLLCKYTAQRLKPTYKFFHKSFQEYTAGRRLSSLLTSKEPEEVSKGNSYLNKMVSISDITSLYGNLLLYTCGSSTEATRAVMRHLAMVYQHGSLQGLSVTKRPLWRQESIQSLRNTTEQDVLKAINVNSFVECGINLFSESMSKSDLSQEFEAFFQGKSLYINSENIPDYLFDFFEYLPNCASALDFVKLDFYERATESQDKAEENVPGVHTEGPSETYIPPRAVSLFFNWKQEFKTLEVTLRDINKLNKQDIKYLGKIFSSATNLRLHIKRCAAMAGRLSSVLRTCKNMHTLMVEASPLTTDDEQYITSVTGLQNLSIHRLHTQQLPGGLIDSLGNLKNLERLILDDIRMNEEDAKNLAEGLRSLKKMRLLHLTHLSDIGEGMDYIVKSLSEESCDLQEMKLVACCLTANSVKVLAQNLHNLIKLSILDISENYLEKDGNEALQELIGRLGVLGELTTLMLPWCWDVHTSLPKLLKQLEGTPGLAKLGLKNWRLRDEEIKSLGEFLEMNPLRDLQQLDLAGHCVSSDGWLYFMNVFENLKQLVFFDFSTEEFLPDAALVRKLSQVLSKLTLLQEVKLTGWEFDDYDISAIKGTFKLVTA

O=C(Cn1c(=O)oc2ccccc21)NCC(O)(c1ccoc1)c1ccco1 (stereo not shown) [Compound C75]
inhibition of IL-1β release upon NLRP3 activation (NLRP3 inflammasome): completely prevented IL-1β secretion | IC50 (NLRP3 inflammasome): 9.24 ± 1.06 µM | remaining activity at 100 µM (NLRP3 inflammasome): 0% | inhibition of NLRC4-mediated IL-1β production (NLRC4 inflammasome): presented inhibitory power against the NLRC4 inflammasome | rate of ASC speck positive cells [1]: significantly reduced

O=C(Cn1c(=O)oc2ccccc21)NCCn1cc(-c2ccoc2)cn1 [Compound C78, N-(2-(4-(furan-3-yl)-1H-pyrazol-1-yl)ethyl)-2-(2-oxobenzoidloxazol-3(2H)-yl)acetamide]
inhibition of IL-1β release upon NLRP3 activation (NLRP3 inflammasome): completely prevented IL-1β secretion | IC50 (NLRP3 inflammasome): 8.26 ± 1.16 µM | remaining activity at 100 µM (NLRP3 inflammasome): 0% | inhibition of NLRC4-mediated IL-1β production (NLRC4 inflammasome): presented inhibitory power against the NLRC4 inflammasome | rate of ASC speck positive cells [1]: significantly reduced

Source: patent US20240158386A1, “BENZOXAZOLONE INHIBITORS OF INFLAMMASOMES” (ICAHN SCHOOL OF MEDICINE AT MOUNT SINAI, priority 2021, published 2024)
